Results taken from patent publication US5972894A, “Peptides having potassium channel opener activity” (Cytran, Inc., priority 1997, dated 1999).
Residues, ends and D or L forms follow the SMILES beside them.

Legend:
Format in all cases: in vivo
rats [1] = test: Arterial blood pressure in anesthetized rats
Protocol: White random-bred male rats weighing approximately 200 g were employed for this study. Each dose of each respective test or control substance was administered to a group of five rats. GE and VT were employed as test substances and were administered intravenously at doses of 0.01, 0.1, 1.0, and 10.0 mg/kg. Physiological saline (0.2 ml) served as the negative control substance. The ganglionic blocking agent, pentamine, served as the positive control substance and was tested at a dose of 5 mg/kg. Following administration of the test substance, positive control substance, or negative control substance, the arterial blood pressure of each animal was monitored.
Prior to administration of the test or control substance, each animal was anesthetized with Chloralose and then both its carotid artery and jugular vein were catheterized. The carotid catheter was connected to an electronic manometer attached to a computer recorder through an analog-to-digital converter. The mean basal level of the arterial blood pressure was determined as follows: For a period of 30 seconds, the digital signal pertaining to the arterial blood pressure was recorded at 1-second intervals. The mean value of these thirty individual measurements was then determined and recorded.
After determining the mean basal level of the arterial blood pressure, a particular dose of the test or control substance was administered in a volume of 0.2 ml of physiological saline to an animal through the jugular venous catheter. Measurements of the arterial blood pressure were then taken during the next 1.5 hours as follows: (i) during the first 5 minutes, the arterial blood pressure was being monitored continuously and mean values were calculated electronically and recorded at each of the ten different 30-second intervals (i.e., 30th second, 60th second, etc.); (ii) thereafter, mean values of the arterial blood pressure were calculated at the first seconds of 10th minute, 15th minute, 30th minute, 45th minute, 60th minute, 75th minute, and 90th minute after administration of the respective test or control substance.

mice = test: Chloroform-induced arrhythmia
Protocol: Each mouse in the study was treated by intraperitoneal injection of a dose of a test or control substance 15 minutes prior to the administration of a deep chloroform anesthesia. A test or control substance was then administered to each mouse. […] Novocainamide, a known antiarrhythmic agent, served as the positive control substance and was administered to mice in the positive control group at a dose of 240 mg/kg. Physiological saline served as the negative control substance and was administered to the mice in the negative control group.
Chloroform anesthesia was administered to each mouse by placing the mouse in an airtight glass container with cotton wool soaked in 20 ml of absolute chloroform. At the moment of respiratory arrest, the mouse was removed from the jar and electrocardiogram (ECG) monitoring (standard lead II) was initiated and continued for 30 seconds. […] An antiarrhythmic activity for a particular dose of a test substance is pharmaceutically acceptable if 30% of the animals in a test group show the latter test results (i.e., namely, no sign of ventricular paroxysmal rhythm disturbances and heart rate below 100 beats per 30 seconds within 30 seconds following the respiratory arrest).

rats [2] = test: CPK activity in blood serum 1 hour after coronary occlusion; conditions: for CPK Activity in blood serum: 1 hour after coronary occlusion
Protocol: White random-bred male rats weighing approximately 200 g were anesthetized using a light ether administration and then immobilized and artificially ventilated. […] Immediately after ligation, a test substance, positive, control substance, or negative control substance (described below) was administered to a rat through a catheterized femoral vein. Each dose of each test substance or positive or negative control substance was administered to an experimental or control group of 9 test rats. In this study, GE and VT served as test substances, propranolol served as the positive control substance, and physiological saline served as the negative control substance. Each test rat in an experimental group was given a dose of either 0.1, 1.0, or 10.0 milligram GE per kilogram of body weight of the subject animal (mg/kg) or 0.1, 1.0, or 10.0 milligram VT per kilogram of body weight of the animal. Each animal of the positive control group received an intravenous dose of 0.5 mg of β-adrenergic blocking agent, propranolol (Obzidan, Germed, Germany) per kilogram of body weight. Propranolol is commonly used to manage cardiac arrhythmia and there is some evidence that the agent may reduce the extent of ischemic damage to the heart. […] Each animal of the negative control group received physiological saline.
One hour after initiation of the coronary artery occlusion, each test animal was sacrificed, its blood was collected, and the CPK activity in its blood serum was measured. CPK activity was determined by using a standard biochemical method, such as that commercially available from the Lachema Company (Czechia) in its test kit, and by following the manufacturer's process instructions included in the package insert.
As a supplementary control for the possible trauma caused by the surgical procedure, a group of 9 sham-operated rats was included in the study. These test animals were subjected to chest dissection, but not to coronary artery occlusion. These "sham-operated" animals were not treated with any test or control substances and were euthanized 1 hour after surgery. Their blood was then collected for determination of CPK activity.

[3] = 0.001 mg/kg i.p. 15 min before chloroform
[4] = 0.01 mg/kg i.p. 15 min before chloroform
[5] = 0.1 mg/kg i.p. 15 min before chloroform
[6] = 1.0 mg/kg i.p. 15 min before chloroform
[7] = 10.0 mg/kg i.p. 15 min before chloroform

Compound: NCC(=O)N[C@@H](CCC(=O)O)C(=O)O [GE, L-Glycyl-L-Glutamic acid] (H-Gly-Glu-OH)
- Arterial Blood Pressure (Basal Level = 100.00) (rats [1]; 0.01 mg/kg i.v., 1 min): 101.02%
- Arterial Blood Pressure (Basal Level = 100.00) (rats [1]; 0.01 mg/kg i.v., 2 min): 102.72%
- Arterial Blood Pressure (Basal Level = 100.00) (rats [1]; 0.01 mg/kg i.v., 3 min): 103.88%
- Arterial Blood Pressure (Basal Level = 100.00) (rats [1]; 0.01 mg/kg i.v., 4 min): 99.77%
- Arterial Blood Pressure (Basal Level = 100.00) (rats [1]; 0.01 mg/kg i.v., 5 min): 102.90%
- Arterial Blood Pressure (Basal Level = 100.00) (rats [1]; 0.01 mg/kg i.v., 10 min): 96.17%
- Arterial Blood Pressure (Basal Level = 100.00) (rats [1]; 0.01 mg/kg i.v., 15 min): 97.01%
- Arterial Blood Pressure (Basal Level = 100.00) (rats [1]; 0.01 mg/kg i.v., 30 min): 98.26%
- Arterial Blood Pressure (Basal Level = 100.00) (rats [1]; 0.01 mg/kg i.v., 45 min): 99.01%
- Arterial Blood Pressure (Basal Level = 100.00) (rats [1]; 0.01 mg/kg i.v., 60 min): 93.29%
- Arterial Blood Pressure (Basal Level = 100.00) (rats [1]; 0.01 mg/kg i.v., 75 min): 94.15%
- Arterial Blood Pressure (Basal Level = 100.00) (rats [1]; 0.01 mg/kg i.v., 90 min): 102.09%
- Arterial Blood Pressure (Basal Level = 100.00) (rats [1]; 0.1 mg/kg i.v., 1 min): 96.00%
- Arterial Blood Pressure (Basal Level = 100.00) (rats [1]; 0.1 mg/kg i.v., 2 min): 96.60%
- Arterial Blood Pressure (Basal Level = 100.00) (rats [1]; 0.1 mg/kg i.v., 3 min): 97.66%
- Arterial Blood Pressure (Basal Level = 100.00) (rats [1]; 0.1 mg/kg i.v., 4 min): 97.32%
- Arterial Blood Pressure (Basal Level = 100.00) (rats [1]; 0.1 mg/kg i.v., 5 min): 98.31%
- Arterial Blood Pressure (Basal Level = 100.00) (rats [1]; 0.1 mg/kg i.v., 10 min): 96.04%
- Arterial Blood Pressure (Basal Level = 100.00) (rats [1]; 0.1 mg/kg i.v., 15 min): 94.98%
- Arterial Blood Pressure (Basal Level = 100.00) (rats [1]; 0.1 mg/kg i.v., 30 min): 93.56%
- Arterial Blood Pressure (Basal Level = 100.00) (rats [1]; 0.1 mg/kg i.v., 45 min): 80.15%
- Arterial Blood Pressure (Basal Level = 100.00) (rats [1]; 0.1 mg/kg i.v., 60 min): 83.03%
- Arterial Blood Pressure (Basal Level = 100.00) (rats [1]; 0.1 mg/kg i.v., 75 min): 83.37%
- Arterial Blood Pressure (Basal Level = 100.00) (rats [1]; 0.1 mg/kg i.v., 90 min): 84.50%
- Arterial Blood Pressure (Basal Level = 100.00) (rats [1]; 1.0 mg/kg i.v., 1 min): 70.32%
- Arterial Blood Pressure (Basal Level = 100.00) (rats [1]; 1.0 mg/kg i.v., 2 min): 84.63%
- Arterial Blood Pressure (Basal Level = 100.00) (rats [1]; 1.0 mg/kg i.v., 3 min): 90.73%
- Arterial Blood Pressure (Basal Level = 100.00) (rats [1]; 1.0 mg/kg i.v., 4 min): 93.72%
- Arterial Blood Pressure (Basal Level = 100.00) (rats [1]; 1.0 mg/kg i.v., 5 min): 98.11%
- Arterial Blood Pressure (Basal Level = 100.00) (rats [1]; 1.0 mg/kg i.v., 10 min): 94.67%
- Arterial Blood Pressure (Basal Level = 100.00) (rats [1]; 1.0 mg/kg i.v., 15 min): 92.70%
- Arterial Blood Pressure (Basal Level = 100.00) (rats [1]; 1.0 mg/kg i.v., 30 min): 90.58%
- Arterial Blood Pressure (Basal Level = 100.00) (rats [1]; 1.0 mg/kg i.v., 45 min): 88.43%
- Arterial Blood Pressure (Basal Level = 100.00) (rats [1]; 1.0 mg/kg i.v., 60 min): 88.85%
- Arterial Blood Pressure (Basal Level = 100.00) (rats [1]; 1.0 mg/kg i.v., 75 min): 90.07%
- Arterial Blood Pressure (Basal Level = 100.00) (rats [1]; 1.0 mg/kg i.v., 90 min): 89.82%
- Arterial Blood Pressure (Basal Level = 100.00) (rats [1]; 10.0 mg/kg i.v., 1 min): 94.68%
- Arterial Blood Pressure (Basal Level = 100.00) (rats [1]; 10.0 mg/kg i.v., 2 min): 100.17%
- Arterial Blood Pressure (Basal Level = 100.00) (rats [1]; 10.0 mg/kg i.v., 3 min): 101.63%
- Arterial Blood Pressure (Basal Level = 100.00) (rats [1]; 10.0 mg/kg i.v., 4 min): 101.22%
- Arterial Blood Pressure (Basal Level = 100.00) (rats [1]; 10.0 mg/kg i.v., 5 min): 100.20%
- Arterial Blood Pressure (Basal Level = 100.00) (rats [1]; 10.0 mg/kg i.v., 10 min): 95.61%
- Arterial Blood Pressure (Basal Level = 100.00) (rats [1]; 10.0 mg/kg i.v., 15 min): 91.27%
- Arterial Blood Pressure (Basal Level = 100.00) (rats [1]; 10.0 mg/kg i.v., 30 min): 88.24%
- Arterial Blood Pressure (Basal Level = 100.00) (rats [1]; 10.0 mg/kg i.v., 45 min): 89.56%
- Arterial Blood Pressure (Basal Level = 100.00) (rats [1]; 10.0 mg/kg i.v., 60 min): 85.99%
- Arterial Blood Pressure (Basal Level = 100.00) (rats [1]; 10.0 mg/kg i.v., 75 min): 87.12%
- Arterial Blood Pressure (Basal Level = 100.00) (rats [1]; 10.0 mg/kg i.v., 90 min): 78.69%
- effect on mean arterial blood pressure (rats [1]; after about 60 to 90 minutes): moderate, but delayed, decrease in the mean arterial blood pressure
- Antiarrhythmic Effect (no. animals) % (mice; [3]): 11.1%
- Antiarrhythmic Effect (no. animals) abs (mice; [3]): 1
- Result (mice; [3]): No effect
- Antiarrhythmic Effect (no. animals) % (mice; [4]): 44.4%
- Antiarrhythmic Effect (no. animals) abs (mice; [4]): 4
- Result (mice; [4]): Antiarrhythmic effect
- Antiarrhythmic Effect (no. animals) % (mice; [5]): 44.4%
- Antiarrhythmic Effect (no. animals) abs (mice; [5]): 4
- Result (mice; [5]): Antiarrhythmic effect
- Antiarrhythmic Effect (no. animals) % (mice; [6]): 55.6%
- Antiarrhythmic Effect (no. animals) abs (mice; [6]): 5
- Result (mice; [6]): Antiarrhythmic effect
- prevention of chloroform-induced ventricular arrhythmias (mice; 0.01, 0.1, 1.0, or 10.0 mg/kg): prevent the development of ventricular arrhythmias
- Antiarrhythmic Effect (no. animals) % (mice; [7]): 66.7%
- Antiarrhythmic Effect (no. animals) abs (mice; [7]): 6
- Result (mice; [7]): Antiarrhythmic effect
- CPK Activity in blood serum (rats [2]; 0.1 mg/kg i.v.): 0.062 (±0.013) mcCat/L
- CPK Activity in blood serum (rats [2]; 1.0 mg/kg i.v.): 0.056 (±0.014) mcCat/L
- CPK Activity in blood serum (rats [2]; 10.0 mg/kg i.v.): 0.110 (±0.024) mcCat/L
- extent of induced myocardial ischemic lesions (CPK in serum vs negative control) (rats [2]; 0.1, 1.0, and 10.0 milligram): diminish the extent of induced myocardial ischemic lesions
